Test results published in US5886178A, “3-aroylbenzylpyridazinone derivatives” (Syntex (U.S.A.) Inc., priority 1997, dated 1999).
pIC50: −log10 of the molar value.

Columns and labels:
COX II [1] = target: T1, COX II (Homo sapiens, UniProt P35354); experiment: Inhibition of COX II in vitro, partially purified enzyme, radiometric assay; assay type: biochemical; set-up: made in house; conditions: 20 micromolar arachidonic acid
T1 sequence (P35354 18-604): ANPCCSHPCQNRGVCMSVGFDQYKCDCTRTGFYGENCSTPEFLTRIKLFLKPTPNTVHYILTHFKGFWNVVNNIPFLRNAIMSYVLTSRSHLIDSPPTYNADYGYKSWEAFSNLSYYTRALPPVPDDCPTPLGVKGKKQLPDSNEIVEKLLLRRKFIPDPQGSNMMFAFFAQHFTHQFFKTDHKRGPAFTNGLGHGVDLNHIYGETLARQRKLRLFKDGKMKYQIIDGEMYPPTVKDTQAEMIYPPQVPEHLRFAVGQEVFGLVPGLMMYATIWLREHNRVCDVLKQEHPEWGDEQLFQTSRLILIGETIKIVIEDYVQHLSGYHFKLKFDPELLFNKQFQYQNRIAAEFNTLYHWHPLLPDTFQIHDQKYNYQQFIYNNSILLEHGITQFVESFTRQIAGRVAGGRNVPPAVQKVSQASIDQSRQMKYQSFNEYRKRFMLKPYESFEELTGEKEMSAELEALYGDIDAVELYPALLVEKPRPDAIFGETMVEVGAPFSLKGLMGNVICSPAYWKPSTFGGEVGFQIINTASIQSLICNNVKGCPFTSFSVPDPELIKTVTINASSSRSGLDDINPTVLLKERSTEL
Experimental: (§1) The COX I and COX II inhibitory activity of compounds of this invention in vitro was determined using partially purified COX I and COX II enzymes, prepared as described in J. Barnett et al, Biochim. Biophys.
(§2) COX I and COX II samples were diluted with Tris-HCl buffer (50 mM Tris-HCl, pH 7.9) containing 2 mM EDTA and 10% glycerol and reconstituted by incubating first with 2 mM phenol for 5 minutes and then with 1 micromolar hematin for an additional 5 minutes. 125 μl of the reconstituted COX I or COX II enzyme were preincubated for 10 minutes at room temperature in a shaking water bath with the compounds of the invention dissolved in 2-15 μl of DMSO or the carrier vehicles (control samples). The enzyme reaction was initiated by adding 25 μl of 1-[14C]arachidonic acid (80,000-100,000 cpm/tube; 20 micromolar final concentration) and the reaction was allowed to continue for an additional 45 seconds. The reaction was terminated by adding 100 μl of 2N HCl and 750 μl water. An aliquot (950 μl) of the reaction mixture was loaded onto a 1 ml C18 Sep-Pak column (J. T. Baker, Phillipsburg, N.J.) which had been previously washed with 2-3 ml methanol and equilibrated with 5-6 ml distilled water. Oxygenated products were quantitatively eluted with 3 ml of acetonitrile/water/acetic acid (50:50:0.1, v/v) and the radioactivity in the eluate determined in a scintillation counter.

[2] = Carrageenan-induced paw edema in the rat (anti-inflammatory activity); assay type: in vivo; conditions: 3 h, 30 mg/Kg, oral, female rats, read-out: % inhibition of increase in hind paw weight
Experimental: The anti-inflammatory activity of compounds of this invention was determined by measuring the inhibition of carrageenan-induced paw edema in the rat, using a modification of the method described in Winter C. k et al (1962) "Carrageenan-Induced Edema in Hind Paw of the Rat as an Assay for Anti-inflammatory Drugs". Proc. Soc. Exp. Biol. Med. 111: 544-547. This assay has been used as a primary in vivo screen for anti-inflammatory activity of most NSAIDs, and is considered predictive of human efficacy. Briefly, test materials were administered orally to female rats in a volume of 1 ml prepared as solutions or suspensions in an aqueous vehicle containing 0.9% NaCl, 0.5% sodium carboxymethyl-cellulose, 0.4% polysorbate 80, 0.9% benzyl alcohol and 97.3% distilled water. Control rats received vehicle alone. After 1 hr 0.05 ml of a 0.5% solution of Carrageenan (Type IV Lambda, Sigma Chemical Co.) in 0.9% saline was injected into the subplantar region of the right hind paw. Three hours later the rats were euthanized in a carbon dioxide atmosphere; hind paws were removed by severing at the tatso-crural joint; and the left and right paws were weighed. The increase in weight of the right paw over the left paw was obtained for each animal and the mean increases were calculated for each group. The anti-inflammatory activity of the test materials is expressed as the percent inhibition of the increase in hind paw weight of the test group relative to the vehicle-dosed control group.
The anti-inflammatory activities (expressed as % inhibition) of some of the compounds of the invention were: […]

COX I [3] = target: T2, COX I (Homo sapiens, UniProt P23219); experiment: Inhibition of COX I in vitro, partially purified enzyme, radiometric assay; assay type: biochemical; set-up: made in house; conditions: 20 micromolar arachidonic acid
T2 sequence (P23219 24-599): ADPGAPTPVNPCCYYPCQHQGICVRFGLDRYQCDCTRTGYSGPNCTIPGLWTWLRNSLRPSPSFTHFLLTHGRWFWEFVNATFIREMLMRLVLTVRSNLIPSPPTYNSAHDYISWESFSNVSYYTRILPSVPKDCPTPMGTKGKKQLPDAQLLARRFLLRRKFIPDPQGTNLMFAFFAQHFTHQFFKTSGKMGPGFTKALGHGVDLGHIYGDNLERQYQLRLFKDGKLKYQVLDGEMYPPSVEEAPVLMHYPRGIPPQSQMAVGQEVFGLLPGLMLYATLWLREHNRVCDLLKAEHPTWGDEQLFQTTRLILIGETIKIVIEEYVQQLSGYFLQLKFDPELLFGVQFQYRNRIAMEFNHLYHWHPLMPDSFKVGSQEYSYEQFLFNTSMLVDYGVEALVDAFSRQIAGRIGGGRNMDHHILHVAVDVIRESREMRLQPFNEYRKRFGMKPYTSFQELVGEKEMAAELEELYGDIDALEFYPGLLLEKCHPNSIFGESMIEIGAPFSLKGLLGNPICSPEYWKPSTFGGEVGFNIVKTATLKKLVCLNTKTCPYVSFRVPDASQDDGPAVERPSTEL
Experimental: as §1, §2

COX II [4] = target: T1, COX II; experiment: Inhibition of COX II in a cell based assay (human foreskin fibroblasts, PGE2 ELISA); set-up: host or cells: primary human foreskin fibroblasts (HFF), induced with PMA and human interleukin-1; conditions: human foreskin fibroblasts (HFF)
Experimental: (§3) The COX I and COX II inhibitory activity of compounds of this invention in a cell based assay was determined as described below.
The inhibitory activity of test compounds against cell associated COX-2 was measured using primary cultures of human foreskin fibroblasts (HFF). HFF cultures were obtained from ATCC, grown in DMEM medium (Gibco) and used between 13-30 passages. Cells were plated in 96-well microtiter plates at a density of 6-8×10^4 cells/well in DMEM containing 10% fetal calf serum (Sigma) and cultured at 37° C. until they became confluent. The medium was removed and the cells were washed once with PBS. COX-2 activity was induced by incubating the cells with fresh DMEM containing 0.1 μM phorbol 12-myristate 13-acetate (PMA, Sigma) and 1ng/ml of human interleukin-1 (Sigma) at 37° C. After 16 h the medium was removed and the cells were washed twice with phosphate buffered saline (PBS, Gibco). 200 μl/well of fresh medium containing desired concentrations of the test compounds in DMSO, or the carrier vehicle (control wells) was added and the cells incubated at 37° C. for 30 minutes; after which 5 μM calcium ionophore A23187 (Sigma) was added and the incubation was continued for an additional 10 minutes. The reaction was terminated by transferring the plates to ice. The culture supernatants were transferred and appropriately diluted, and the amount of prostaglandin E2 (PGE2) present in each supernatant was quantitated using an ELISA kit (Cayman Chemicals).
(§4) The COX I and COX II inhibitory activities in the cell based assay (expressed as IC50) of some compounds of the invention were: […]

COX I [5] = target: T2, COX I; experiment: Inhibition of COX I in a cell based assay (human promonocytic THP cells, TXB2 ELISA); set-up: endogenous in cells; host or cells: human promonocytic THP cells, PMA-treated
Experimental: as §3
The inhibitory activity of the test compounds against cell associated COX-1 was measured using human promonocytic THP cells. Cells were plated in 96-well microtiter plates at a density of 8×10^4 cells/well in RPMI-1640 medium (Gibco). COX-1 activity was initiated by incubating the cells with 0.1μM phorbol 12-myristate 13-acetate (PMA, Sigma) in dimethyl sulfoxide (DMSO, Aldrich) at 37° C. After 40-48 hours, the medium was removed, and the cells were washed twice with phosphate buffered saline (PBS, Gibco). 225 μl/well of fresh medium containing desired concentrations of the test compounds in DMSO, or the carrier vehicles (control wells), was added and the cells incubated at 37° C. for 30 minutes; after which 5 μM calcium ionophore A23187 (Sigma) was added and the incubation was continued for an additional 10 minutes. The reaction was terminated by transferring the plates to ice. The culture supernatants were transferred and appropriately diluted and the amount of thromboxane B2 (TXB2) present in each supernatant was quantitated using an ELISA kit (Cayman Chemicals).
as §4

[6] = tested on: prostaglandin E2 synthesis; experiment: Inhibition of eicosanoid (PGE2) synthesis in vivo, carrageenan air-pouch model in rats; set-up: species or system rat; conditions: oral, male rats
Experimental: In this assay, an air-pouch is created in the rat and the PGE2 levels in the air-pouch exudate are measured by enzyme immunoassay. Briefly, male rats were anesthetized using a 60:40 CO2 :O2 mixture and subsequently injected subcutaneously with 20 ml of sterilized air, under aseptic conditions, in the proximal area of the dorsum. This injection of sterile air causes the creation of a subcutaneous "air pouch". The next day, a further 10 ml of sterile air was injected into the previously formed pouch using the same technique. […] Control rats received vehicle alone. After 30 minutes, 5 ml of a 0.5% solution of carrageenan (Sigma, Lambda Type IV) was injected into the air pouch. The rats were euthanized 3 hr after the compound administration. […] The total exudate volume was recorded, and the samples were analyzed for PGE2 and 6-keto PGF1 by ELISA (Titerzyme®, PerSeptive Diagnostics) and TxB2 by radioimmuno assay (New England Nuclear Research, Catalog No. NEK-037), according to the manufacturer's directions.
The mean concentrations of PGE2 were calculated for each group. The anti-inflammatory activity of test materials is expressed as the percent inhibition of PGE2 formation in the test group relative to the control group.

Row | Compound | pIC50 (COX II [1]) | inhibition in vivo at 30 mg/kg [2] | pIC50 (COX I [3]) | pIC50 (COX II [4]) | pIC50 (COX I [5]) | % inhibition of air pouch PGE2 formation ([6]; 30 mg/Kg) | % inhibition of air pouch PGE2 formation ([6]; 10 mg/Kg)
1 | COc1ccc(C(=O)c2c(Cl)cc(Cl)cc2Cl)cc1Cc1ccc(=O)[nH]n1 [Cpd 26, 6-[3-(2,4,6-trichlorobenzoyl)-6-methoxybenzyl]-2H-pyridazin-3-one] | 6.22 | 24% | 3.27 | 6.52 | 4.72 |  | 
2 | O=C(c1ccc(F)c(Cc2ccc(=O)[nH]n2)c1)c1c(Cl)cc(Cl)cc1Cl [Cpd 77, 6-[3-(2,4,6-trichlorobenzoyl)-6-fluorobenzyl]-2H-pyridazin-3-one] | 6.85 |  | 3.52 | 7.52 | 4.77 | 53% | 
3 | Cc1ccc(C(=O)c2c(Cl)cc(Cl)cc2Cl)cc1Cc1ccc(=O)n(C)n1 [Cpd 62, 6-[3-(2,4,6-trichlorobenzoyl)-6-methylbenzyl]-2-methyl-2H-pyridazin-3-one] | 6.74 | 33% | 3.52 | 6.52 |  |  | 
4 | CSc1ccc(C(=O)c2cccc(Cc3ccc(=O)[nH]n3)c2Cl)cc1 [Cpd 5, 6-[3-(4-methylthio-benzoyl)-2-chlorobenzyl]-2H-pyridazin-3-one] |  |  |  |  |  |  | 32%
5 | COc1ccc(C(=O)c2c(Cl)cc(Cl)cc2Cl)cc1Cc1ccc(=O)n(C)n1 [Cpd 31, 6-[3-(2,4,6-trichlorobenzoyl)-6-methoxybenzyl]-2-methyl-2H-pyridazin-3-one] | 5.89 | 38% | 3.00 | 5.40 |  |  | 
6 | O=C(c1cccc(Cc2ccc(=O)[nH]n2)c1)c1c(Cl)cc(Cl)cc1Cl [Cpd 78, 6-[3-(2,4,6-trichlorobenzoyl)benzyl]-2H-pyridazin-3-one] | 5.70 | 22% | 3.13 | 6.52 |  |  | 
7 | COc1ccc(C(=O)c2c(Cl)cc(C)cc2Cl)cc1Cc1ccc(=O)[nH]n1 [Cpd 28, 6-[3-(2,6-dichloro-4-methylbenzoyl)-6-methoxybenzyl]-2H-pyridazin-3-one] | 5.70 | 21% | 4.00 | 5.47 |  |  | 
8 | COc1ccc(C(=O)c2c(Br)cc(C)cc2Br)cc1Cc1ccc(=O)[nH]n1 [Cpd 39, 6-[3-(2,6-dibromo-4-methylbenzoyl)-6-methoxybenzyl]-2H-pyridazin-3-one] | 6.00 | 33% | 4.00 | 6.00 | 4.59 |  | 
9 | COc1ccc(C(=O)c2c(C)cc(C)cc2C)cc1Cc1ccc(=O)[nH]n1 [Cpd 44, 6-[3-(2,4,6-trimethylbenzoyl)-6-methoxybenzyl]-2H-pyridazin-3-one] | 5.89 | 19% | 4.00 | 5.92 | 4.80 |  | 
10 | O=C(c1ccc(Cl)c(Cc2ccc(=O)[nH]n2)c1)c1c(Cl)cc(Cl)cc1Cl [Cpd 73, 6-[3-(2,4,6-trichlorobenzoyl)-6-chlorobenzyl]-2H-pyridazin-3-one] | 6.80 | 33% | 3.37 | 6.70 | 4.68 |  | 
11 | CSc1ccc(C(=O)c2cccc(Cc3ccc(=O)[nH]n3)c2C)cc1 [Cpd 10, 6-[3-(4-methylthiobenzoyl)-2-methylbenzyl]-2H-pyridazin-3-one] |  |  |  |  |  |  | 24%
12 | Cc1ccc(C(=O)c2c(Cl)cc(Cl)cc2Cl)cc1Cc1ccc(=O)[nH]n1 [Cpd 61, 6-[3-(2,4,6-trichlorobenzoyl)-6-methylbenzyl]-2H-pyridazin-3-one] | 6.74 |  | 3.51 | 6.32 |  |  | 
